Experimental data: US20260285877A1, “Macrocyclic EGFR Inhibitor, and Preparation Method Therefor and Pharmaceutical Use Thereof” (Abbisko Therapeutics Co., Ltd., priority 2022, published 2026)
pIC50: −log10 of the molar value. Each block holds one compound with its values, some of them ahead of it.

Tests used:
[1] = Pharmacokinetic experiment in mice; type: in vivo; conditions: mouse, plasma; ICR mice, PO 10 mg/kg (IV 2 mg/kg); read-out: Oral F
Description: The purpose of this trial is to study the pharmacokinetic behavior of some compounds of the present invention, and the administration method is: Single oral administration (PO) to ICR mice. The compounds used in this trial are from the compounds in the specific examples of the present invention and the listed positive compounds. ICR mice male N=9 original source: Shanghai Sippr-Bk Lab Animal Co., Ltd. The compounds are weighed and dissolved in the corresponding solution (10% PG+10% Solutol®+80% pH3 citrate buffer). The mixture is then shaken well and sonicated to prepare a 1 mg/mL stock solution. Nine mice are orally administered at a dose of 10 mg/kg (or IV 2 mg/kg) after an overnight fast. About 90 μL of blood is collected via the submandibular vein per time point, heparin sodium anticoagulant is added, the sample is placed on ice after collection, and plasma is centrifuged within 1 hour (centrifugation conditions: 8,000 rpm, 6 minutes, 2-8° C.). The blood collection timepoints are 0, 0.25, 0.5, 1, 2, 4, 6, 8 and 24 h. The samples are stored in a −20° C. refrigerator. The plasma sample is 40 μL, 160 μL of ice-cold acetonitrile containing internal standard is added, vortexed for 3 minutes, and centrifuged at 11,000 rpm for 5 minutes. 100 μL of the supernatant is taken and added to 100 μL of water, 5 μL of the sample is taken and injected into LC/MS/MS for analysis.

[2] = test system: A431 WT; test: Cell proliferation assay (CellTiter-Glo), A431 WT; type: cell-based; conditions: Homo sapiens, A-431; A431 WT cells, 72 hour incubation, CTG
Procedure: (§1) • (1) Harvest cells in a logarithmic growth phase and count the cells using a platelet counter.
(§2) • (1) Add 10 μL PBS to each well of the TO plate containing cells. • (2) Thaw the CTG reagent and equilibrate the plate to room temperature for 30 minutes. • (3) Add an equal volume of CTG solution to each well. • (4) Lyse cells by shaking on an orbital shaker for 5 minutes. • (5) Leave the plate at room temperature for 20 minutes to stabilize the luminescence signal. • (6) Read the TO fluorescence signal.
(§3) Then add 10 μL of the drug solution concentration to individual wells of the 96-well plate seeded with cells.
(§4) • (1) Thaw the CTG reagent and equilibrate the plate to room temperature for 30 minutes. • (2) Add an equal volume of CTG solution to each well. • (3) Lyse cells by shaking on an orbital shaker for 5 minutes. • (4) Leave the plate at room temperature for 20 minutes to stabilize the fluorescence signal. • (5) Read fluorescence value.
(§5) Analyze the data by using GraphPad Prism 7.0 software, and use Non-linear S-curve regression to fit the dose-response curves, to calculate the IC50 values (in nM).

[3] = test system: Ba/F3 EGFR-L858R-C797S (LC); test: Cell proliferation assay (CellTiter-Glo), Ba/F3 EGFR-L858R-C797S; type: cell-based; conditions: Mus musculus, BaF3; Ba/F3 EGFR-L858R-C797S cells, 72 hour incubation, CTG
Procedure: as §1, §2, §3, §4, §5

[4] = test system: Ba/F3 EGFR-L858R-T790M-C797S (LTC); test: Cell proliferation assay (CellTiter-Glo), Ba/F3 EGFR-L858R-T790M-C797S; type: cell-based; conditions: Mus musculus, BaF3; Ba/F3 EGFR-L858R-T790M-C797S cells, 72 hour incubation, CTG
Procedure: as §1, §2, §3, §4, §5

[5] = phase III FLAURA, compared with first-generation EGFR TKIs; cited from earlier work

bioavailability [1]: 81.5%
Structure (SMILES): CCS(=O)(=O)C[C@H]1CCN(c2nn3c4cc(ncc24)Nc2ccnc(n2)-c2cnn(C)c2OCC2(CCCC2)C3)C1 [Example 35, (S)-3′-(3-((ethylsulfonyl)meth-yl)pyrrolidin-1-yl)-1′-meth-ylspiro(cyclopentane-1,6′-8-oxa-3-aza-4(6,1)-pyrazolo [4,3-c]pyridina-2(2,4)-pyri-midina-1(4,5)-pyrazolacyclo-octaphane)]

Structure (SMILES): CC(=O)N[C@@H]1CCN(c2nn3c4cc(ncc24)Nc2ccnc(n2)-c2cnn(C)c2OCC2(CCCC2)C3)C1 [Example 49]
pIC50 [2]: 6.03
pIC50 [3]: 7.22
pIC50 [4]: 7.53

Structure (SMILES): C=CC(=O)Nc1cc(Nc2nccc(-c3cn(C)c4ccccc34)n2)c(OC)cc1N(C)CCN(C)C [Osimertinib]
overall survival [5]: 38.6 months
progression-free survival [5]: 18.9 months
